Experimental data reported in patent publication US6653300B2, “Pyrazole compounds useful as protein kinase inhibitors” (Vertex Pharmaceuticals Incorporated, priority 2000, dated 2003).
“And” between values parts separate entries of the source, which are not always exact repeats. Identical values can stand only once.

What was measured:
GSK-3β (AA 1-420) = target: T1, GSK-3β (AA 1-420) (Homo sapiens, UniProt P49841); assay: Ki determination for the inhibition of GSK-3 (coupled enzyme system); assay type: biochemical; conditions: 20 μM ATP, 20 nM GSK-3β, 30° C.
T1 construct: GSK-3β (AA 1-420)
Summary of the method: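 GSK-3β (AA 1-420, 20 nM) was run in a pyruvate kinase/LDH-coupled NADH assay in 100 mM HEPES pH 7.5, 10 mM MgCl2, 25 mM NaCl, 1 mM DTT, 1.5% DMSO, with 300 μM phosphopeptide substrate. Compound (0.002–30 μM) was preincubated 10 min at 30° C, then 20 μM ATP was added.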

Aurora-2 = target: T2, Aurora-2 (Homo sapiens, UniProt O14965); assay: Ki determination for the inhibition of Aurora-2 (coupled enzyme assay); assay type: biochemical; conditions: 70 nM Aurora-2, 30° C.
T2 sequence (O14965 1-403): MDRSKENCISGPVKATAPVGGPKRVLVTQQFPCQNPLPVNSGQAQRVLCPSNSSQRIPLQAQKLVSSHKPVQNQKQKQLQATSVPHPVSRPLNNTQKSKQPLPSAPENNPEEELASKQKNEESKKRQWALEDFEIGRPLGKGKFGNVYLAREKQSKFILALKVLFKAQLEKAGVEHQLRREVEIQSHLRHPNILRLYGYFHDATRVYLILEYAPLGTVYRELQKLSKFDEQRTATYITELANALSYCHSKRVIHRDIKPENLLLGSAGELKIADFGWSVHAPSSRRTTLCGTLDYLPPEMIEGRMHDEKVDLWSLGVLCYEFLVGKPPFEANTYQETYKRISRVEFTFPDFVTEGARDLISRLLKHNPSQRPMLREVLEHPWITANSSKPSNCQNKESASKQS
Method: Compounds were screened in the following manner for their ability to inhibit Aurora-2 using a standard coupled enzyme assay (Fox et al (1998) Protein Sci 7, 2249).
To an assay stock buffer solution containing 0.1M HEPES 7.5, 10 mM MgCl2, 1 mM DTT, 25 mM NaCl, 2.5 mM phosphoenolpyruvate, […], 30 mg/ml pyruvate kinase, 10 mg/ml lactate dehydrogenase, […], and 800 μM peptide (LRRASLG, American Peptide, Sunnyvale, Calif.) was added a DMSO solution of a compound of the present invention to a final concentration of 30 μM. The resulting mixture was incubated at 30° C. for 10 min. The reaction was initiated by the addition of 10 μL of Aurora-2 stock solution to give a final concentration of 70 nM in the assay. The rates of reaction were obtained by monitoring absorbance at 340 nm over a 5 minute read time at 30° C. using a BioRad Ultramark plate reader (Hercules, Calif.). The Ki values were determined from the rate data as a function of inhibitor concentration.

T1 sequence (P49841 whole entry, the tested form may be a part): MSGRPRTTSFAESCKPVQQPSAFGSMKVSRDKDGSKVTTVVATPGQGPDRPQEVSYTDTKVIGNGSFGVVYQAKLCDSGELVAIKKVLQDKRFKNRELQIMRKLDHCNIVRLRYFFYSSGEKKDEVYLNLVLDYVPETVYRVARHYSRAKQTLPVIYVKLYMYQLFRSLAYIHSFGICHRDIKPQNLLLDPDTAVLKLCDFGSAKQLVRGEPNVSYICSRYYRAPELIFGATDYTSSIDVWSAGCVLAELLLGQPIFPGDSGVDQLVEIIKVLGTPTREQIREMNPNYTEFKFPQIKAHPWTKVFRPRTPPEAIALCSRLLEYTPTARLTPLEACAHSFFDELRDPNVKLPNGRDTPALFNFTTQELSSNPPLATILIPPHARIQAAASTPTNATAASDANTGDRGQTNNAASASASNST

Structure (SMILES) | melting point | Ki (GSK-3β (AA 1-420)) | Ki (Aurora-2) [nM]
COC(=O)Cc1ccc(Nc2nc(Nc3cc(C)[nH]n3)c3ccccc3n2)cc1C [IIc-64, [2-(4-Methoxycarbonylmethyl-3-methylphenylamino)-quinazolin-4-yl]-(5-methyl-2H-pyrazol-3-yl)-amine] | 245 to 246 °C | 100 to 1000 nM | < 100
Cc1cc(Nc2nc(Nc3ccc(C)c(C)c3)nc3ccccc23)n[nH]1 [IIc-54, [2-(3,4-Dimethylphenylamino)-quinazolin-4-yl]-(5-methyl-2H-pyrazol-3-yl)-amine] | 249 to 251 °C | 100 to 1000 nM | < 100
c1ccc2[nH]c(Sc3nc(Nc4cc(C5CC5)[nH]n4)c4ccccc4n3)nc2c1 [IIa-34, [2-(Benzimidazol-2-ylsulfanyl)-quinazolin-4-yl]-(5-cyclopropyl-2H-pyrazol-3-yl)-amine] | 201 to 203 °C | 100 to 1000 nM | < 100
c1ccc2c(c1)CC(Nc1nc(Nc3cc(C4CC4)[nH]n3)c3ccccc3n1)C2 [IIc-49, (5-Cyclopropyl-2H-pyrazol-3-yl)-[2-(indan-2-ylamino)-quinazolin-4-yl]-amine] | 233 to 234 °C | 100 to 1000 nM | < 100
Cc1cc(Nc2nc(Nc3ccc(Cl)cc3)nc3ccccc23)n[nH]1 [IIc-12, [2-(4-Chlorophenylamino)-quinazolin-4-yl]-(5-methyl-2H-pyrazol-3-yl)-amine] | > 250 °C | < 100 nM | < 100
Cc1cc(Nc2nc(NC3CCCCC3)nc3ccccc23)n[nH]1 [IIc-6, (2-Cyclohexylamino-quinazolin-4-yl)-(5-methyl-2H-pyrazol-3-yl)-amine] | 280 °C (dec.) | < 100 nM and 100 to 1000 nM | < 100
CCCc1ccc(Nc2nc(Nc3cc(C4CC4)n[nH]3)c3ccccc3n2)cc1 [IIc-26, (5-Cyclopropyl-2H-pyrazol-3-yl)-[2-(4-propylphenylamino)-quinazolin-4-yl]-amine] | 255 to 256 °C | 100 to 1000 nM | < 100
O=C(O)Cc1ccc(Nc2nc(Nc3cc(C4CC4)[nH]n3)c3ccccc3n2)cc1 [IIc-36, [2-(4-Carboxymethylphenylamino)-quinazolin-4-yl]-(5-cyclopropyl-2H-pyrazol-3-yl)-amine] | > 210 °C (dec.) | < 100 nM | < 100
c1ccc2cc(Sc3nc4c(c(Nc5cc(C6CC6)[nH]n5)n3)CCCC4)ccc2c1 [IIa-29, (5-Cyclopropyl-2H-pyrazol-3-yl)-[2-(naphthalen-2-ylsulfanyl)-5,6,7,8-tetrahydroquinazolin-4-yl-]-amine] | 244 °C | 100 to 1000 nM | < 100
Cc1cc(Nc2nc(Nc3cccc(CO)c3)nc3ccccc23)n[nH]1 [IIc-16, [2-(3-Hydroxymethylphenylamino)-quinazolin-4-yl]-(5-methyl-2H-pyrazol-3-yl)-amine] | > 250 °C | 100 to 1000 nM | < 100
COC(=O)c1ccc(Sc2nc(Nc3cc(C4CC4)[nH]n3)c3ccccc3n2)cc1 [IIa-35, (5-Cyclopropyl-2H-pyrazol-3-yl)-[2-(4-methoxycarbonylphenylsulfanyl)-quinazolin-4-yl]-amine] | 245 to 246 °C | 100 to 1000 nM | < 100
Cc1cc(Nc2nc(Nc3ccc4c(c3)OCCO4)nc3ccccc23)n[nH]1 [IIc-7, [2-(2,3-Dihydrobenzo[1,4]dioxin-6-ylamino)-quinazolin-4-yl]-(5-methyl-2H-pyrazol-3-yl)-amine] | > 250 °C | 100 to 1000 nM | < 100
CC(=O)Nc1ccc(Nc2nc(Nc3cc(C)[nH]n3)c3ccccc3n2)cc1C [IIc-48, [2-(4-acetamido-3-methylphenylamino)-quinazolin-4-yl]-(5-methyl-2H-pyrazol-3-yl)-amine] | 251 °C | 100 to 1000 nM | < 100
Cc1cc(Nc2nc(Nc3cccc(-c4ccccc4)c3)nc3ccccc23)n[nH]1 [IIc-63, [2-(Biphenyl-3-ylamino)-quinazolin-4-yl]-(5-methyl-2H-pyrazol-3-yl)-amine] | 206 to 207 °C | 100 to 1000 nM | < 100
Cc1cc(Nc2nc(Sc3ccc(NC(=O)CN(C)C(=O)OC(C)(C)C)cc3)nc3ccccc23)n[nH]1 [IIa-76, (2-{4-[2-(tert-Butoxycarbonyl-methyl-amino)-acetylamino]-phenylsulfanyl}-quinazolin-4-yl)-(5-methyl-2H-pyrazol-3-yl)-amine] | 228 to 229 °C (dec.) | 1000 to 7000 nM | < 100
COc1ccc(Oc2nc(Nc3cc(C)[nH]n3)c3ccccc3n2)cc1OC [IIb-7, [2-(3,4-Dimethoxyphenoxy)-quinazolin-4-yl]-(5-methyl-2N-pyrazol-3-yl)-amine] | 277 to 278 °C | 100 to 1000 nM | < 100
CCc1ccccc1Sc1nc(Nc2cc(C)[nH]n2)c2ccccc2n1 [IIa-5, [2-(2-Ethylphenylsulfanyl)-quinazolin-4-yl]-(5-methyl-2H-pyrazol-3-yl)-amine] | 205 to 208 °C | 100 to 1000 nM | < 100

Now from value to molecule:

melting point | Ki (GSK-3β (AA 1-420)) | Ki (Aurora-2) [nM] | Structure (SMILES)
235 to 238 °C | < 100 nM | < 100 | CS(=O)(=O)Nc1ccc(Sc2nc(Nc3cc(C4CC4)[nH]n3)c3ccccc3n2)cc1 [IIa-61, (5-Cycloprpyl-2H-pyrazol-3-yl)-[2-(4-methylsulfonylamino-phenylsulfanyl)-quinazolin-4-yl]-amine]
192 to 193 °C | 1000 to 7000 nM | 100 to 1000 | Cc1cc(Nc2nc(Sc3ccc(C(=O)NCCN(C)C)cc3)nc3ccccc23)n[nH]1 [IIa-67, {2-[4-(2-Dimethylamino-ethylcarbamoyl)-phenylsulfanyl]-quinazolin-4-yl}-(5-methyl-2H-pyrazol-3-yl)-amine]
> 250 °C | 100 to 1000 nM | < 100 | Cc1cc(Nc2nc(Nc3cccc(O)c3)nc3ccccc23)n[nH]1 [IIc-17, [2-(3-Hydroxyphenylamino)-quinazolin-4-yl]-(5-methyl-2H-pyrazol-3-yl)-amine]
238 to 239 °C | 100 to 1000 nM | < 100 | CCc1cccc(Nc2nc(Nc3cc(C)[nH]n3)c3ccccc3n2)c1 [IIc-55, [2-(3-Ethylphenylamino)-quinazolin-4-yl]-(5-methyl-2H-pyrazol-3-yl)-amine]
275 to 276 °C | 100 to 1000 nM | < 100 | c1ccc2c(Nc3cc(C4CC4)[nH]n3)nc(Nc3ccc(N4CCOCC4)cc3)nc2c1 [IIc-52, (5-Cyclopropyl-2H-pyrazol-3-yl)-{2-[4-(morpholin-1-yl)phenylamino]-quinazolin-4-yl}-amine]
225 to 227 °C | 100 to 1000 nM | < 100 | Cc1cc(Nc2nc(NCc3ccccc3)nc3ccccc23)n[nH]1 [IIc-5, (2-Benzylamino-quinazolin-4-yl)-(5-methyl-2H-pyrazol-3-yl)-amine]
245 °C (dec.) | 100 to 1000 nM | < 100 | Cc1cc(Nc2nc(Nc3ccc(CC(=O)O)c(C)c3)nc3ccccc23)n[nH]1 [IIc-65, [2-(4-Carboxymethyl-3-methylphenylamino)-quinazolin-4-yl]-(5-methyl-2H-pyrazol-3-yl)-amine]
